According to BindingDB's records for PubMed 35688004 (University of Hradec Kralove, 2022):

Columns and labels:
[1] = target: Phosphatidylinositol 4,5-bisphosphate 3-kinase catalytic subunit beta isoform (Homo sapiens, UniProt P42338); experiment: Inhibition of human PI3Kbeta preincubated for 15 mins followed by ATP addition measured after 1 hr by TR-FRET assay
[2] = target: Phosphatidylinositol 4,5-bisphosphate 3-kinase catalytic subunit gamma isoform (Homo sapiens, UniProt P48736); experiment: Inhibition of human PI3Kgamma preincubated for 15 mins followed by ATP addition measured after 1 hr by TR-FRET assay
[3] = target: Phosphatidylinositol 4,5-bisphosphate 3-kinase catalytic subunit alpha isoform (Homo sapiens, UniProt P42336); experiment: Inhibition of human PI3Kalpha preincubated for 15 mins followed by ATP addition measured after 1 hr by TR-FRET assay
Chain of Phosphatidylinositol 4,5-bisphosphate 3-kinase catalytic subunit alpha isoform (P42336 whole entry, canonical isoform): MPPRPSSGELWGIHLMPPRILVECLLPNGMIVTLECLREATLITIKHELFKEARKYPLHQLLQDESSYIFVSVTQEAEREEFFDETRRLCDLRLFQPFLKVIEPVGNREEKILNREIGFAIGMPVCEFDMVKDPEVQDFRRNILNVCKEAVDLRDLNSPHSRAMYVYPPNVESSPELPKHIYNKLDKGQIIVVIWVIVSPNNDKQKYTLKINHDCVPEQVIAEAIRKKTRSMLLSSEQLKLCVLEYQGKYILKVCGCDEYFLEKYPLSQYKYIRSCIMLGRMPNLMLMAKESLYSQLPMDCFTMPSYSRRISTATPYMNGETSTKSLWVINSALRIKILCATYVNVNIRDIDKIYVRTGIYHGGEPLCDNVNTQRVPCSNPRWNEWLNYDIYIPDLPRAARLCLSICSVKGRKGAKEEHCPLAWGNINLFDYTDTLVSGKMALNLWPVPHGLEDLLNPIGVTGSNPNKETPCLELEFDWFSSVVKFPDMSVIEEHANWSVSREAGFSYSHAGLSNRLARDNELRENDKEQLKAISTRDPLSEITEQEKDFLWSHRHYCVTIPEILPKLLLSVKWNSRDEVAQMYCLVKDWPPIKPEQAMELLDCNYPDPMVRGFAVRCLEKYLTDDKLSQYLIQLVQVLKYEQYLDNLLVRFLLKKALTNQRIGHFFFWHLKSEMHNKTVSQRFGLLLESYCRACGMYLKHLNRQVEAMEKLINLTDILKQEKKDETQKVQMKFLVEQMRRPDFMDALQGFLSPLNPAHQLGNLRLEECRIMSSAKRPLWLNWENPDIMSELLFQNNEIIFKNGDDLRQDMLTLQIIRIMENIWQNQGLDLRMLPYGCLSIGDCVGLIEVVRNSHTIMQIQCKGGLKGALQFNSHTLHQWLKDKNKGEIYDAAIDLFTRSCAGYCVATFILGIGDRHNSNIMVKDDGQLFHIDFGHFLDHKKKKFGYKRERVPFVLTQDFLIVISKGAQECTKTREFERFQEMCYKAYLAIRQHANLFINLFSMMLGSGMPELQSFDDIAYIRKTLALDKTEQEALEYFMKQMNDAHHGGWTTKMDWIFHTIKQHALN

Chain of Phosphatidylinositol 4,5-bisphosphate 3-kinase catalytic subunit beta isoform (P42338 whole entry, canonical isoform): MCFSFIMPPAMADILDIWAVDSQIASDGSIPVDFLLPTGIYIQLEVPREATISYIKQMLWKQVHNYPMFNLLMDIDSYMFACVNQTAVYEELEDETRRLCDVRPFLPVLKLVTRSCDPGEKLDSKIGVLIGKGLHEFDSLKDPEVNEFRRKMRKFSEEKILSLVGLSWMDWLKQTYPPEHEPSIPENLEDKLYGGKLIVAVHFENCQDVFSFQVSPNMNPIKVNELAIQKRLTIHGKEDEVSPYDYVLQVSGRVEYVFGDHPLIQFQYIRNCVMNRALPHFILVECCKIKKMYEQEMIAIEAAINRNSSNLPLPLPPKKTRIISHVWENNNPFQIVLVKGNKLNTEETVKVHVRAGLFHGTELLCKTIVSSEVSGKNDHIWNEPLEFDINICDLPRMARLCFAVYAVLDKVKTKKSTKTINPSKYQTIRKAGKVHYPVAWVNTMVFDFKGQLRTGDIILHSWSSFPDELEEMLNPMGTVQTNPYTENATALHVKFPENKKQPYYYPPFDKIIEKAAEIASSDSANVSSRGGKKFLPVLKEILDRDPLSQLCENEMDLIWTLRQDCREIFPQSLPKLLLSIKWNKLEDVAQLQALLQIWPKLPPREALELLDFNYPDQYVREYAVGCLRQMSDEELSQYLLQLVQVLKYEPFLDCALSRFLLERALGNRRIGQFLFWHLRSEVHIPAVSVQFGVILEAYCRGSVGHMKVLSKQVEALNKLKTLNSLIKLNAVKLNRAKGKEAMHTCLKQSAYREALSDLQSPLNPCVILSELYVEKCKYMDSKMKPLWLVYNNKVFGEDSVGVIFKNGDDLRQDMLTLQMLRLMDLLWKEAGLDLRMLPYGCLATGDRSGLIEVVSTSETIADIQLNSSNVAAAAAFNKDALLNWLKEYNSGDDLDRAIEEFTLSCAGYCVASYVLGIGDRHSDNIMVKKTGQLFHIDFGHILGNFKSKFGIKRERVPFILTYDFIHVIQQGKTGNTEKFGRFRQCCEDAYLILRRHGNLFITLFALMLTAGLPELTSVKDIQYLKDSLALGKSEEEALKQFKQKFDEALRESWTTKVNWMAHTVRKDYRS
Chain of Phosphatidylinositol 4,5-bisphosphate 3-kinase catalytic subunit gamma isoform (P48736 whole entry, canonical isoform): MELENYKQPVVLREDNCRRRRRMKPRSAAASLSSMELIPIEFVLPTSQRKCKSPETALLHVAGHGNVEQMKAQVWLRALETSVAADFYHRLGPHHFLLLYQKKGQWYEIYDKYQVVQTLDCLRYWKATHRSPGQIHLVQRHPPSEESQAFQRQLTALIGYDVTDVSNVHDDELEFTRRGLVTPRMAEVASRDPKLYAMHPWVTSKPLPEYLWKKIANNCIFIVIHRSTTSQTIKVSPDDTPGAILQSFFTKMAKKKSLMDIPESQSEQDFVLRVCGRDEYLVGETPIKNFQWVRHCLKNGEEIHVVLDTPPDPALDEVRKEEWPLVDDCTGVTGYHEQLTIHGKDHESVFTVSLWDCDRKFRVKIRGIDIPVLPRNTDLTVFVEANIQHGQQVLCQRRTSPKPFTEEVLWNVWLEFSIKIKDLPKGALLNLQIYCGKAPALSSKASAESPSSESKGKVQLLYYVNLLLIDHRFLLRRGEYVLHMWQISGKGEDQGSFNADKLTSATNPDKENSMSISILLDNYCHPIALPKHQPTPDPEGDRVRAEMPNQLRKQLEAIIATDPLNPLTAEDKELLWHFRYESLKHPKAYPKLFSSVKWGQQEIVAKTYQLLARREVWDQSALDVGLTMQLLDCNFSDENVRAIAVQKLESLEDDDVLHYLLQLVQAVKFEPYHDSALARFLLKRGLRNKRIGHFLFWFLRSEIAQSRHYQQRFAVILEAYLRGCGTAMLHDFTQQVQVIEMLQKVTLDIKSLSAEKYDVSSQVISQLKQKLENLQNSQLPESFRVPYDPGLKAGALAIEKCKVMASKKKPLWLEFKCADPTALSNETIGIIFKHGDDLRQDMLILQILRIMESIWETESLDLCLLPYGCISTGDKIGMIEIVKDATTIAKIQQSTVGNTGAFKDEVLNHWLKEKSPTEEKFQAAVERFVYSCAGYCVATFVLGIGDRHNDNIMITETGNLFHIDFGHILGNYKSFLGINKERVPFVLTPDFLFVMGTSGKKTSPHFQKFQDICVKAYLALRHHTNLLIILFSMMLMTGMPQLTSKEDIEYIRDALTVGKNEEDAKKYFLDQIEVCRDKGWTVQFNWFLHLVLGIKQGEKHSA

In the case of `Nc1ncnc2c1c(-c1cc3cc(O)cc(Cl)c3[nH]1)nn2C1CCOCC1` [US10172858, Table 2.68], the IC50 [1] is reported as over 500 nM.
In the case of `CC(=O)N1CCC(n2nc(-c3cc4cc(O)cc(Cl)c4[nH]3)c3c(N)ncnc32)CC1` [US10172858, Table 2.70], the IC50 [1] is reported as over 500 nM.
With `COc1cccc2cc(-c3nn(C4CCOCC4)c4ncnc(N)c34)[nH]c12` [US10172858, Table 2.63] the IC50 [1] was over 500 nM.
`Nc1ncnc2c1c(-c1cc3cccc(O)c3[nH]1)nn2C1CCOCC1` [US10172858, Table 2.62] gave an IC50 [2] of over 500 nM, an IC50 [3] of over 500 nM and an IC50 [1] of over 500 nM.
`CC(=O)N1CCC(n2nc(-c3cc4c(Cl)ccc(O)c4[nH]3)c3c(N)ncnc32)CC1` [US10172858, Table 2.69] was tested, and the IC50 [2] was over 500 nM, the IC50 [3] was over 500 nM and the IC50 [1] was over 500 nM.
`Nc1ncnc2c1c(-c1cc3cc(O)ccc3[nH]1)nn2C1CCOCC1` [US10172858, Table 2.42] was tested, and the IC50 [3] was over 500 nM and the IC50 [1] was over 500 nM.
